Experiments:
AR protein = target: T1, AR protein (Homo sapiens, UniProt P10275, T878A); assay: AR protein degradation in LNCaP cells (Western blot); assay type: cell-based; details: 8 hours; for Degradation of AR protein in LNCaP cells, 10 nM (%) / percent AR protein degradation at a fixed concentration at 0.01 µM: 10 nM; for Degradation of AR protein in LNCaP cells, 100 nM (%) / percent AR protein degradation at a fixed concentration at 0.1 µM: 100 nM
T1 construct: host or cells: LNCaP FGC
T1 sequence (P10275 1-920 T878A): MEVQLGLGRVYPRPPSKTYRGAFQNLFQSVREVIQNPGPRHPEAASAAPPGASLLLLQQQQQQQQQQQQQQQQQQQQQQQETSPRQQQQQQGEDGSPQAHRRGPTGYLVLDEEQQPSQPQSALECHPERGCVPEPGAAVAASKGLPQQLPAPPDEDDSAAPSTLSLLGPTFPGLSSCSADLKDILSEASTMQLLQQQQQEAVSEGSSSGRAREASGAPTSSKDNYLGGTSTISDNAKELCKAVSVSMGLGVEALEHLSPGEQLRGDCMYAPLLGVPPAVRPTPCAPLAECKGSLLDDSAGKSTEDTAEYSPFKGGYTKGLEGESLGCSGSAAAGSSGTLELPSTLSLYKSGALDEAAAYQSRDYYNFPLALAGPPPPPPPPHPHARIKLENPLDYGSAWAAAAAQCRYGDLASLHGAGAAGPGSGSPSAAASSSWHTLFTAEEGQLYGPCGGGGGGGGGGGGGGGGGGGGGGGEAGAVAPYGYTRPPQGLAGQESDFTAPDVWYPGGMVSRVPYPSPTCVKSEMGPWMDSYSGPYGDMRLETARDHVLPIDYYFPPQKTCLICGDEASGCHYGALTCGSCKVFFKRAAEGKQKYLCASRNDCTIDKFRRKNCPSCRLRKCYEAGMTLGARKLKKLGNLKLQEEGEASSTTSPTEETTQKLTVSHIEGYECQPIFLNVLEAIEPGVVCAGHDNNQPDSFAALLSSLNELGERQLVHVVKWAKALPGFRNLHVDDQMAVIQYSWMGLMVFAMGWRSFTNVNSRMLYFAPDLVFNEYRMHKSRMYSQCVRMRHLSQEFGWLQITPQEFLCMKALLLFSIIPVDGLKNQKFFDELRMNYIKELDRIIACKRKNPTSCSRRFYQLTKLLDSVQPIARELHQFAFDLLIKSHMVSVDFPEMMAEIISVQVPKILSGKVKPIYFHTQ
Summary of the method: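 LNCaP cells exposed to compound or solvent control for 8 h, lysed in RIPA, protein normalized by BCA. AR detected by SDS-PAGE/Western blot with infrared imaging; band grayscale normalized to GAPDH to calculate AR degradation rate.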

LNCaP cells = assay: Inhibition of LNCaP cell proliferation (WST-8); assay type: cell-based; details: LNCaP FGC cells, 96 hours
Summary of the method: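 Cells were seeded and cultured overnight at 37 °C, 5% CO2, then exposed for 96 h to compound at 9 concentrations, 5-fold serial dilution from 10 µM final. Viability was read by WST-8 absorbance at 450 nm.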

| Degradation of AR protein in LNCaP cells, 10 nM (%) (AR protein) | Degradation of AR protein in LNCaP cells, 100 nM (%) (AR protein) | IC50 (LNCaP cells; Homo sapiens) [µM] | IC50 (LNCaP cells) [µM] | Structure (SMILES) | percent AR protein degradation at a fixed concentration at 0.01 µM (AR protein) [%] | percent AR protein degradation at a fixed concentration at 0.1 µM (AR protein) [%] |
| --- | --- | --- | --- | --- | --- | --- |
| -56 | 23 | 0.2 |  | COc1cc(O[C@H]2C(C)(C)[C@H](NC(=O)c3ccc(N4CCC(F)(CN5CCC6(CCc7cc(C(=O)N[C@H]8CCC(=O)NC8=O)c(F)cc7O6)CC5)CC4)cc3)C2(C)C)ccc1C#N [A-P-52, 1'-((1-(4-(((1r,3r)-3-(4-cyano-3-methoxyphenoxy)-2,2,4,4-tetramethylcyclobutyl)carbamoyl)phenyl)-4-fluoropiperidin-4-yl)methyl)-N-((S)-2,6-dioxopiperidin-3-yl)-7-fluorospiro[chroman-2,4'-piperidin]-6-carboxamide] |  |  |
| 45 | 63 | 0.86 |  | COc1cc(O[C@H]2C(C)(C)[C@H](NC(=O)c3ccc(N4CCC(C)(CN5CCC6(CCc7cc(C(=O)N[C@H]8CCC(=O)NC8=O)c(F)cc7O6)CC5)CC4)nn3)C2(C)C)ccc1C#N [A-P-48, 1'-((1-(6-(((1R,3R)-3-(4-cyano-3-methoxyphenoxy)-2,2,4,4-tetramethylcyclobutyl)carbamoyl)pyridazin-3-yl)-4-methylpiperidin-4-yl)methyl)-N-((S)-2,6-dioxopiperidin-3-yl)-7-fluorospiro[chroman-2,4'-piperidin]-6-carboxamide] |  |  |
| 8 | 35 | 0.36 |  | COc1cc(O[C@H]2C(C)(C)[C@H](NC(=O)c3ccc(N4CCC(C)(CN5CCC6(CCc7cc(C(=O)N[C@H]8CCC(=O)NC8=O)c(F)cc7O6)CC5)CC4)cn3)C2(C)C)ccc1C#N [A-P-43, 1'-((1-(6-(((1r,3r)-3-(4-cyano-3-methoxyphenoxy)-2,2,4,4-tetramethylcyclobutyl)carbamoyl)pyridin-3-yl)-4-methylpiperidin-4-yl)methyl)-N-((S)-2,6-dioxopiperidin-3-yl)-7-fluorospiro[chroman-2,4'-piperidin]-6-carboxamide] |  |  |
|  |  | 2.89 |  | COc1cc(O[C@H]2C(C)(C)[C@H](NC(=O)c3ccc(N4CCC(N5CC6(CCC7(CC6)COc6c7ccc7c6CN(C6CCC(=O)NC6=O)C7=O)C5)CC4)cc3)C2(C)C)ccc1C#N (stereo partly drawn) [A-P-2] | -42 | 43 |
| 49 | 78 |  | 1.07 | COc1cc(O[C@H]2C(C)(C)[C@H](NC(=O)c3ccc(N4CCC(CN5CCN(c6ccc(C(=O)N[C@H]7CCC(=O)NC7=O)c(F)c6)CC5)CC4)cc3)C2(C)C)ccc1C#N [ARV-766, reference compound] |  |  |
|  |  | 0.58 |  | COc1cc(O[C@H]2C(C)(C)[C@H](NC(=O)c3ccc(N4CCC(C)(CN5CCC6(CCc7cc(C(=O)N[C@H]8CCC(=O)NC8=O)c(F)cc7O6)CC5)CC4)cc3)C2(C)C)ccc1C#N [A-P-31, 1'-((1-((4-((1r,3r)-3-(4-cyano-3-methoxyphenoxy)-2,2,4,4-tetramethylcyclobutyl)carbamoyl)phenyl)-4-methylpiperidin-4-yl)methyl)-N-((S)-2,6-dioxopiperidin-3-yl)-7-fluorospiro[2,4'-piperidin]-6-carboxamide] | 47 | 71 |
| 84 | 85 | 1.58 |  | COc1cc(O[C@H]2C(C)(C)[C@H](NC(=O)c3ccc(N4CCC(CN5CCC6(CCc7cc(C(=O)N[C@H]8CCC(=O)NC8=O)c(F)cc7O6)CC5)CC4)nc3)C2(C)C)ccc1C#N [A-P-33, 1'-((1-(5-(((1R,3R)-3-(4-cyano-3-methoxyphenoxy)-2,2,4,4-tetramethylcyclobutyl)carbamoyl)pyridin-2-yl)piperidin-4-yl)methyl)-N-((S)-2,6-dioxopiperidin-3-yl)-7-fluorospiro[chroman-2,4'-piperidin]-6-carboxamide] |  |  |

| Structure (SMILES) | Degradation of AR protein in LNCaP cells, 10 nM (%) (AR protein) | Degradation of AR protein in LNCaP cells, 100 nM (%) (AR protein) | IC50 (LNCaP cells; Homo sapiens) [µM] | IC50 (LNCaP cells) [µM] | percent AR protein degradation at a fixed concentration at 0.01 µM (AR protein) [%] | percent AR protein degradation at a fixed concentration at 0.1 µM (AR protein) [%] |
| --- | --- | --- | --- | --- | --- | --- |
| COc1cc(O[C@H]2C(C)(C)[C@H](NC(=O)c3ccc(N4CCC(CN5CC6(CCC7(CC6)COc6c7ccc7c6CN(C6CCC(=O)NC6=O)C7=O)C5)CC4)cc3)C2(C)C)ccc1C#N (relative stereo) [A-P-3] | 64 | 65 | 3.43 |  |  |  |
| COc1cc(O[C@H]2C(C)(C)[C@H](NC(=O)c3ccc(N4CCC(F)(CN5CCC6(CC5)COc5cc7c(cc56)n(C)c(=O)n7C5CCC(=O)NC5=O)CC4)cc3)C2(C)C)ccc1C#N (stereo partly drawn) [A-P-13] |  |  | 61 |  | 32 | 35 |
| COc1cc(O[C@H]2CC[C@H](NC(=O)c3ccc(N4CCC(N5CCC6(CC5)COc5cc7c(cc56)n(C)c(=O)n7C5CCC(=O)NC5=O)CC4)nn3)CC2)ccc1C#N (stereo partly drawn) [A-P-18, N-((1r,4r)-4-(4-cyano-3-methoxyphenoxy)cyclohexyl)-6-(4-(3-(2,6-dioxopyridyl-3-yl)-1-methyl-2-oxo-2,3-dihydro-1H,6H-spiro[benzofuro[5,6-d]imidazole-7,4'-piperidin]-1'-yl)piperidin-1-yl)pyridazine-3-carboxamide] |  |  | 120 |  | 43 | 11 |
| C[C@H]1CC2(CCN(c3ccc(C(=O)N4CCC(CN5CCC6(CCc7cc(C(=O)N[C@H]8CCC(=O)NC8=O)c(F)cc7O6)CC5)CC4)cc3)CC2)CN1c1ccc(C#N)c(Cl)c1 [A-P-35, 1'-((1-(4-((S)-2-(3-chloro-4-cyanophenyl)-3-methyl-2,8-diazaspiro[4.5]decan-8-yl)benzoyl)piperidin-4-yl)methyl)-N-((S)-2,6-dioxopiperidin-3-yl)-7-fluorospiro[chroman-2,4'-piperidin]-6-carboxamide] |  |  | 0.28 |  | 61 | 70 |
| C[C@H]1CC2(CCN(c3ccc(N4CCC(CN5CCC6(CCc7cc(C(=O)N[C@H]8CCC(=O)NC8=O)c(F)cc7O6)CC5)CC4)cc3)CC2)CN1c1ccc(C#N)c(Cl)c1 [A-P-42, 1'-((1-(4-((S)-2-(3-chloro-4-cyanophenyl)-3-methyl-2,8-diazaspiro[4.5]decan-8-yl)phenyl)piperidin-4-yl)methyl)-N-((S)-2,6-dioxopiperidin-3-yl)-7-fluorospiro[chroman-2,4'-piperidin]-6-carboxamide] |  |  | 0.19 |  | 44 | 77 |

— patent publication EP4722219A1 (Gan & Lee Pharmaceuticals Co., Ltd., priority 2023, dated 2024)
